Laboratory results from ChEMBL document CHEMBL1201862, “PubChem BioAssay data set” (2004).
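Five compound concentrations were applied to cells in 96-well plates for 48 hours; endpoints were derived by simple linear interpolation of the resulting dose-response curve. GI50 = concentration required for 50% inhibition of growth.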 The source made the active and inactive calls. Cut-off read from the data, not from the text of the source: active = GI50 up to about 1.1 µM and inactive = higher.

Columns and labels:
Assay in all cases: NCI-60 cell line screen, 48 h
SF-539 = test system: SF-539
SK-MEL-28 = test system: SK-MEL-28
A549 = test system: A549
RXF 393 = test system: RXF 393
MCF7 = test system: MCF7
SNB-75 = test system: SNB-75
M14 = test system: M14
IGROV-1 = test system: IGROV-1
SW-620 = test system: SW-620
HCC 2998 = test system: HCC 2998
EKVX = test system: EKVX
ACHN = test system: ACHN
RPMI-8226 = test system: RPMI-8226
MDA-N = test system: MDA-N
SN12C = test system: SN12C
SK-MEL-5 = test system: SK-MEL-5
UACC-62 = test system: UACC-62
MDA-MB-231 = test system: MDA-MB-231
OVCAR-3 = test system: OVCAR-3
COLO 205 = test system: COLO 205

| Compound | GI50 (SF-539) | GI50 (SK-MEL-28) | GI50 (A549) | GI50 (RXF 393) | GI50 (MCF7) | GI50 (SNB-75) | GI50 (M14) | GI50 (IGROV-1) | GI50 (SW-620) | GI50 (HCC 2998) | GI50 (EKVX) | GI50 (ACHN) | GI50 (RPMI-8226) | GI50 (MDA-N) | GI50 (SN12C) | GI50 (SK-MEL-5) | GI50 (UACC-62) | GI50 (MDA-MB-231) | GI50 (OVCAR-3) | GI50 (COLO 205) |
| --- | --- | --- | --- | --- | --- | --- | --- | --- | --- | --- | --- | --- | --- | --- | --- | --- | --- | --- | --- | --- |
| Oc1cc(Br)cc2cccnc12 | 2.16 µM (inactive) | 17.3 µM (inactive) | 1.52 µM (inactive) | 2.05 µM (inactive) | 0.964 µM (active) | 15.2 µM (inactive) | 1.37 µM (inactive) | 1.71 µM (inactive) | 2.56 µM (inactive) | 28.2 µM (inactive) | 2.09 µM (inactive) | 2.63 µM (inactive) | 1.31 µM (inactive) | 8.28 µM (inactive) | 2.1 µM (inactive) | 2.38 µM (inactive) | 1.92 µM (inactive) | 2.52 µM (inactive) | 1.05 µM (active) | 11.6 µM (inactive) |
| CSc1cc(Cl)c(C)cc1S(=O)(=O)NC(=O)NNc1ccccn1 | > 100 µM (inactive) | > 100 µM (inactive) | > 100 µM (inactive) | > 100 µM (inactive) | > 100 µM (inactive) | 5.21 µM (inactive) | > 100 µM (inactive) | > 100 µM (inactive) | > 100 µM (inactive) | > 100 µM (inactive) | > 100 µM (inactive) | > 100 µM (inactive) | – | > 100 µM (inactive) | > 100 µM (inactive) | > 100 µM (inactive) | – | > 100 µM (inactive) | > 100 µM (inactive) | > 100 µM (inactive) |
| C#CCC(O)c1ccc(OC)c(OCc2ccccc2)c1 (stereo unspecified) | > 100 µM (inactive) | > 100 µM (inactive) | > 100 µM (inactive) | > 100 µM (inactive) | > 100 µM (inactive) | 27 µM (inactive) | > 100 µM (inactive) | > 100 µM (inactive) | – | > 100 µM (inactive) | 56.2 µM (inactive) | > 100 µM (inactive) | > 100 µM (inactive) | > 100 µM (inactive) | > 100 µM (inactive) | 46.9 µM (inactive) | > 100 µM (inactive) | 59.2 µM (inactive) | > 100 µM (inactive) | > 100 µM (inactive) |
| Cc1ccc(O)c(C2=CC3=NNC(=O)C3C(c3cccc(Cl)c3)C2)c1 (stereo unspecified) | 45.2 µM (inactive) | 28.1 µM (inactive) | 52.5 µM (inactive) | 2.56 µM (inactive) | 17.7 µM (inactive) | 18.5 µM (inactive) | 52 µM (inactive) | 31.2 µM (inactive) | 38 µM (inactive) | 20.7 µM (inactive) | 37.3 µM (inactive) | 30.5 µM (inactive) | 24.4 µM (inactive) | 29.5 µM (inactive) | 32.5 µM (inactive) | 32.1 µM (inactive) | 24.9 µM (inactive) | 34.9 µM (inactive) | 26.4 µM (inactive) | 16 µM (inactive) |
| O=C1/C(=C/c2ccccc2[N+](=O)[O-])N=C(c2ccccc2)N1C1Nc2cc3c(cc2S1)NC(N1C(=O)/C(=C/c2ccccc2[N+](=O)[O-])N=C1c1ccccc1)S3 (stereo unspecified) | 44.8 µM (inactive) | > 100 µM (inactive) | 12.6 µM (inactive) | > 100 µM (inactive) | 18.7 µM (inactive) | > 100 µM (inactive) | 68.5 µM (inactive) | 55.2 µM (inactive) | 50.4 µM (inactive) | 16.7 µM (inactive) | 27.7 µM (inactive) | 28.4 µM (inactive) | 18.1 µM (inactive) | 36.8 µM (inactive) | – | 42.1 µM (inactive) | – | 61.5 µM (inactive) | 37.2 µM (inactive) | – |
| Oc1ccc(-c2nc3cc(C(F)(F)F)ccc3n2CC2CCCN3CCCCC23)cc1 (stereo unspecified) | 18.7 µM (inactive) | 16.1 µM (inactive) | – | 15.5 µM (inactive) | 12.6 µM (inactive) | 14.9 µM (inactive) | 16.3 µM (inactive) | 12.7 µM (inactive) | 15.1 µM (inactive) | 9.75 µM (inactive) | 14.8 µM (inactive) | 15 µM (inactive) | 15.6 µM (inactive) | 16.2 µM (inactive) | – | 14.1 µM (inactive) | – | 14.5 µM (inactive) | 13 µM (inactive) | – |
| CCCCC1Nc2ccccc2-c2ccnc(Cl)c21 (stereo unspecified) | 19.2 µM (inactive) | 17.8 µM (inactive) | 28.1 µM (inactive) | 18.5 µM (inactive) | 35 µM (inactive) | 13.5 µM (inactive) | 19.1 µM (inactive) | 19 µM (inactive) | 21.2 µM (inactive) | 38.7 µM (inactive) | 24.2 µM (inactive) | 20.8 µM (inactive) | 12.2 µM (inactive) | 15.6 µM (inactive) | 20.8 µM (inactive) | 15.2 µM (inactive) | 13.7 µM (inactive) | 17.1 µM (inactive) | 11.1 µM (inactive) | 15.7 µM (inactive) |
| C=C1C(=O)O[C@@H]2/C=C(\C)CC/C=C(/COC(C)=O)C[C@@H](OC(C)=O)[C@@H]12 | 16.2 µM (inactive) | 8.99 µM (inactive) | 37.4 µM (inactive) | 9.38 µM (inactive) | 3.71 µM (inactive) | 50.1 µM (inactive) | 12.6 µM (inactive) | 13.4 µM (inactive) | 3.94 µM (inactive) | 16.5 µM (inactive) | 11.1 µM (inactive) | 4.38 µM (inactive) | 3.39 µM (inactive) | 6 µM (inactive) | 11.3 µM (inactive) | 11.6 µM (inactive) | 12.4 µM (inactive) | 14.9 µM (inactive) | 4.49 µM (inactive) | 3.44 µM (inactive) |
| FC(F)(Sc1nc2ccccc2[nH]1)c1nc2ccccc2o1 | > 100 µM (inactive) | > 100 µM (inactive) | > 100 µM (inactive) | > 100 µM (inactive) | > 100 µM (inactive) | > 100 µM (inactive) | > 100 µM (inactive) | > 100 µM (inactive) | > 100 µM (inactive) | > 100 µM (inactive) | – | > 100 µM (inactive) | > 100 µM (inactive) | > 100 µM (inactive) | > 100 µM (inactive) | > 100 µM (inactive) | > 100 µM (inactive) | > 100 µM (inactive) | > 100 µM (inactive) | > 100 µM (inactive) |
| COc1ccc2nc(N/N=C/c3ccc(C)s3)cc(C)c2c1 | 16.5 µM (inactive) | 26.5 µM (inactive) | > 100 µM (inactive) | 19.2 µM (inactive) | 18 µM (inactive) | 24.3 µM (inactive) | 16.6 µM (inactive) | 26.2 µM (inactive) | 25.1 µM (inactive) | 16 µM (inactive) | 26.4 µM (inactive) | 17.7 µM (inactive) | 11.2 µM (inactive) | 16.3 µM (inactive) | 17.9 µM (inactive) | 15.5 µM (inactive) | 16.8 µM (inactive) | 21.5 µM (inactive) | 19.6 µM (inactive) | 19.4 µM (inactive) |
| CCOc1ccc(C2Oc3c(cccc3OC)C=C2[N+](=O)[O-])cc1OCC (stereo unspecified) | 2.39 µM (inactive) | 2.24 µM (inactive) | 17.3 µM (inactive) | 3 µM (inactive) | 3.52 µM (inactive) | 13.8 µM (inactive) | 2.38 µM (inactive) | 4.92 µM (inactive) | 2.06 µM (inactive) | 20.7 µM (inactive) | 16.7 µM (inactive) | 3.71 µM (inactive) | 2.27 µM (inactive) | 2.04 µM (inactive) | 10.8 µM (inactive) | 4.8 µM (inactive) | 5.32 µM (inactive) | 2.73 µM (inactive) | 4.91 µM (inactive) | 3.68 µM (inactive) |
| CCOC(=O)C(=C(SC)SC)c1nn2c(=O)cc(C)nc2s1 | 18.2 µM (inactive) | 17.1 µM (inactive) | 49.5 µM (inactive) | 22.6 µM (inactive) | 20.5 µM (inactive) | 31.4 µM (inactive) | 15.9 µM (inactive) | 20.9 µM (inactive) | 21 µM (inactive) | 18.8 µM (inactive) | 24.3 µM (inactive) | 18.4 µM (inactive) | 17.3 µM (inactive) | 16.4 µM (inactive) | 33.1 µM (inactive) | 22 µM (inactive) | 21 µM (inactive) | 27.9 µM (inactive) | 18.7 µM (inactive) | 18.6 µM (inactive) |
| O=C1CCCC/C1=C\c1ccc([N+](=O)[O-])cc1 | 20.4 µM (inactive) | 11.4 µM (inactive) | 25.5 µM (inactive) | – | 18.5 µM (inactive) | 18.3 µM (inactive) | 18.4 µM (inactive) | 17.1 µM (inactive) | 1.96 µM (inactive) | 12.3 µM (inactive) | 39.6 µM (inactive) | 24 µM (inactive) | 7.57 µM (inactive) | 17.8 µM (inactive) | 13.5 µM (inactive) | 27.2 µM (inactive) | 16.7 µM (inactive) | 21.8 µM (inactive) | 27.5 µM (inactive) | 18.4 µM (inactive) |
| O=C1C=C(OCCCl)C(=O)c2c(O)ccc(O)c21 | 1.36 µM (inactive) | 0.172 µM (active) | 0.262 µM (active) | 1.92 µM (inactive) | 0.216 µM (active) | 0.405 µM (active) | 0.177 µM (active) | 1.81 µM (inactive) | – | 1.63 µM (inactive) | 1.91 µM (inactive) | 1.54 µM (inactive) | 2.08 µM (inactive) | 0.17 µM (active) | 0.225 µM (active) | 0.173 µM (active) | 0.228 µM (active) | 1.78 µM (inactive) | 1.06 µM (active) | 0.181 µM (active) |
| Cc1ccc(S(=O)(=O)N2CCCC2C(=O)O[C@H]2CC[C@H]3CC=C[C@H]32)cc1 (stereo partly specified) | > 10 µM (inactive) | 29.9 µM (inactive) | 19.4 µM (inactive) | – | 26.4 µM (inactive) | > 74.6 µM (inactive) | 38.7 µM (inactive) | 41.3 µM (inactive) | 31.1 µM (inactive) | 67.6 µM (inactive) | 65.6 µM (inactive) | 18.7 µM (inactive) | 17.1 µM (inactive) | > 69.8 µM (inactive) | 27.8 µM (inactive) | 19.1 µM (inactive) | 97.3 µM (inactive) | 63.4 µM (inactive) | > 100 µM (inactive) | > 10 µM (inactive) |
